These results are taken from BindingDB's records for patent US10485800 (The University of Rochester, 2019).

This experiment deals with Mitogen-activated protein kinase kinase kinase 11 (Homo sapiens, UniProt Q16584). Briefly: Radiometric Filter Plate MLK3 Assay. The protocol:
200 ng (130 nM) MLK3 (Dundee, DU8313) was incubated with 1 μM inactive MKK7b (Dundee, DU703) in the presence of 2 μM cold ATP (Km) and 0.5 μCi/assay 33P ATP and appropriate concentrations of compounds. After a twenty minute incubation, the reactions were washed through filter plates and read on a scintillation counter.

Structures are written as SMILES.

In general, IC50 refers to the concentration needed to halve the response being measured.

Mitogen-activated protein kinase kinase kinase 11, sequence (Q16584 whole entry): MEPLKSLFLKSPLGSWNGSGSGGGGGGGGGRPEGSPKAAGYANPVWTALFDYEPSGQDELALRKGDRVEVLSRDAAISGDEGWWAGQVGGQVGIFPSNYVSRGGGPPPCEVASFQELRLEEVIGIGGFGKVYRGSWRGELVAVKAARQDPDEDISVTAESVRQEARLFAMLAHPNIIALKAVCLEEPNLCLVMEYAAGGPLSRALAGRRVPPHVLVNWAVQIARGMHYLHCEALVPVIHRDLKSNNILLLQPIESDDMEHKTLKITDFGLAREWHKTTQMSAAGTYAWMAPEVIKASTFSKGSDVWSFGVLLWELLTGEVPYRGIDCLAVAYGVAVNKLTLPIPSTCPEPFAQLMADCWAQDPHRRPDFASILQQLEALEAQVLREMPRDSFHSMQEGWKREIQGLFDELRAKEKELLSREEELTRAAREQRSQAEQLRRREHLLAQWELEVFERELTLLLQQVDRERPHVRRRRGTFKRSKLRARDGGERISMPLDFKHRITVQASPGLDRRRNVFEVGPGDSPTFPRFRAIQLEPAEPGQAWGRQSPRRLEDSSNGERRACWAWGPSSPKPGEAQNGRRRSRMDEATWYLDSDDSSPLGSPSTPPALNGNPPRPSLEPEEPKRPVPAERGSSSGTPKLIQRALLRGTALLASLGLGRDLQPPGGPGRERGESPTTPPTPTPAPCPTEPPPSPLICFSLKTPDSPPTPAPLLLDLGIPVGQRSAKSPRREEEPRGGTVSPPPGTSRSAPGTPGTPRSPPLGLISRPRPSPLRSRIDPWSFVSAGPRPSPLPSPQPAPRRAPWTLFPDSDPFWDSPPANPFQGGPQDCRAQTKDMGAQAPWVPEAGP

With `CC(=O)N1CCN(C(=O)c2ccc(-c3cnc4[nH]cc(-c5ccc(C(N)=O)cc5)c4c3)cc2)CC1` [US10485800, Example 150], the IC50 result is “in the range around 550 nM”.
